# Ends that are not written are not given here.
# Columns and labels:
# A. baumannii KCCM 40203 = assay: microbe, parasite or virus in culture; conditions: Acinetobacter baumannii, KCCM40203, read-out: MIC at resistance induction condition, A. baumannii KCCM 40203
# Description: (§1) To assess antimicrobial activity, the MIC50 and MIC90 were measured using broth microdilution following CLSI guidelines. […] Each experiment was performed in triplicate. Meropenem (Sigma, Darmstadt, Germany) and colistin were used as control antibiotics. Cation-adjusted Mueller–Hinton broth (CAMHB) (Becton, Dickinson and Company, Franklin Lakes, USA) with supplied calcium (50 mg/L) and magnesium (10 mg/L) was used for the CLSI-test condition. Bacteria in midlog phase and peptides were separately diluted in CAMHB. The bacteria and peptide solutions were then mixed in 96-well polyethylene plates (SPL, Gyeonggi-do, Korea) and incubated for 18 h at 37 °C. The final concentration for bacteria was 5 × 10^5 CFU/ml. […] The MIC was defined to be the lowest concentration of peptide without visible turbidity by comparing with control antibiotics with the unaided eye. […] Each experiment was performed in triplicate. MICs in albumin and acetic acid solutions were measured using the same protocol but with 0.2% bovine serum albumin (Bovogen, Keilor, Australia), 0.01% acetic acid (Merck, New Jersey, USA), and CAMHB with both calcium and magnesium. In addition, MICs used in the antibiotic resistance acquisition test, the outer–inner membrane permeation test, and the transmembrane potential test and for FE-SEM were individually determined. The final bacterial concentrations used were as follows: for resistance acquisition, optical density (OD) 0.01; for outer–inner membrane permeability assays (LB), OD 0.1; for the transmembrane potential test, 1 × 10^8 CFU/ml (OD 0.171); […]. Inhibitory activity unidentifiable by direct observation was determined by counting the CFUs. Each experiment was performed at least twice.
# A. baumannii (KCCM 40203) and S. aureus (KCTC 1621) were selected as drug-sensitive bacteria. Mutation-susceptible tetracycline (an antibiotic that targets ribosomes) (Sigma, Darmstadt, Germany) and ofloxacin (an antibiotic that targets DNA gyrase) (Sigma, Darmstadt, Germany), mutation-resistant colistin (an antibiotic that targets lipopolysaccharide) (Sigma, Darmstadt, Germany) and vancomycin (an antibiotic that targets peptidoglycan pentapeptide) (Sigma, Darmstadt, Germany) were used as control antibiotics. The MIC for each antibiotic against bacteria (at OD 0.01) was measured. […] The MIC for each passage was confirmed by additional broth microdilutions under CLSI guidelines. Resistance acquisition was induced for 30 days (30 passages), and each MIC value was confirmed by an independent MIC test against bacteria at each passage.
# S. aureus KCTC 1621 = assay: microbe, parasite or virus in culture; type: cell-based; conditions: Staphylococcus aureus, KCTC1621, read-out: MIC at resistance induction condition, S. aureus KCTC 1621
# Description: as §1
# A. baumannii (KCCM 40203) and S. aureus (KCTC 1621) were selected as drug-sensitive bacteria. […] The MIC for each antibiotic against bacteria (at OD 0.01) was measured. […]
# MDR A. baumannii = assay: microbe, parasite or virus in culture
# How it was run: (§2)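 Broth microdilution per CLSI in cation-adjusted Mueller–Hinton broth with calcium (50 mg/L) and magnesium (10 mg/L); midlog bacteria at final 5 × 10^5 CFU/ml, 18 h at 37 °C. MIC is the lowest peptide concentration without visible turbidity; triplicate, with meropenem and colistin as control antibiotics.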
# MDR E. faecalis = assay: microbe, parasite or virus in culture
# How it was run: as §2
# MDR P. aeruginosa = assay: microbe, parasite or virus in culture
# How it was run: as §2
# MDR S. aureus = assay: microbe, parasite or virus in culture
# How it was run: as §2
# K. pneumonia strains = assay: microbe, parasite or virus in culture; conditions: Klebsiella pneumoniae, read-out: MIC, K. pneumonia NCCP 16125
# Description: Twenty-six A. baumannii strains were clinically isolated and gifted to us by the Kyungpook National University School of Medicine. One A. baumannii strain (ATCC 17978) was purchased and gifted to us by Kyungpook National University School of Medicine. One A. baumannii strain and 10 K. pneumoniae strains (NCCP) were purchased from the National Culture Collection for Pathogens.
# as §1
# E. aerogenes NCCP 16285 = assay: microbe, parasite or virus in culture; conditions: Klebsiella aerogenes, NCCP16285, read-out: MIC, E. aerogenes NCCP 16285
# Description: as §1
# P. aeruginosa = test system: P. aeruginosa; design: method as in 7 sources, one per row (each row's own in cited_ref): ref 39 (a number printed in a supplementary file, which may have a reference list of its own: not looked up in the article's list) ||| ref 40 (a number printed in a supplementary file, which may have a reference list of its own: not looked up in the article's list) ||| ref 41 (a number printed in a supplementary file, which may have a reference list of its own: not looked up in the article's list) ||| ref 42 (a number printed in a supplementary file, which may have a reference list of its own: not looked up in the article's list) ||| ref 44 (a number printed in a supplementary file, which may have a reference list of its own: not looked up in the article's list) ||| ...; conditions: 1 × 10^5 ~ 3.5 × 10^5 cfu/ml, MHB; cited from earlier work
# S. aureus = test system: S. aureus; design: method as in 7 sources, one per row (each row's own in cited_ref): ref 39 (a number printed in a supplementary file, which may have a reference list of its own: not looked up in the article's list) ||| ref 40 (a number printed in a supplementary file, which may have a reference list of its own: not looked up in the article's list) ||| ref 41 (a number printed in a supplementary file, which may have a reference list of its own: not looked up in the article's list) ||| ref 42 (a number printed in a supplementary file, which may have a reference list of its own: not looked up in the article's list) ||| ref 43 (a number printed in a supplementary file, which may have a reference list of its own: not looked up in the article's list) ||| ...; conditions: 1 × 10^5 ~ 3.5 × 10^5 cfu/ml, MHB; cited from earlier work
# human red blood cells = assay: Hemolytic activity; type: cell-based; conditions: red cells of human, 18 h
# How it was run: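 Haemolysis was read as A540 of cleared supernatants after 18 h at 37 °C, with 0% and 100% lysis set by peptide-free PBS and 1% Triton X-100 and melittin as positive control. Human RBCs were at 4% final, peptide serially diluted 100–0.78 μM; three replicates.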
# [1] = Maximum soluble concentration / turbidity; type: physicochemical; conditions: lyophilized peptide reconstructed in PBS at 200-6.25 μM; visible turbidity checked every 12 h for 5 days; at least twice
# Description: Supplementary Methods Bacteria preparation, Antimicrobial peptides preparation, Minimal-inhibitory-concentration measurements, Hemolysis-activity measurements, Tryptophan fluorescence measurements, Isothermal titration calorimetry measurements, Bacteria membrane ion permeation measurements, Outer-inner membrane permeation, Field-emission scanning electron microscopy and Antimicrobial kinetics were performed as described in Materials and Methods. Liposome (LUV) preparation. Bacterial-membrane-mimic DMPC/DMPG unilamellar vesicles (LUV) and mammalian- membrane-mimic PC/cholesterol vesicles with 100-nm diameters were prepared by extrusion. LiposoFast Liposome Factory Basic unit with stabilizer (Avestin, Ottawa, Canada) was used to extrude liposomes 50 times through a polycarbonate membrane filter (pore diameter, 100 nm; filter diameter, 0.75 inches) (Avestin). […] rac-(1-glycerol)) (sodium salt) (DMPG) (Avanti, Alabama, USA); 1,2-Dimyristoyl-sn-glycero-3-phosphocholine (DMPC) (Avanti); and cholesterol (Sigma, Darmstadt, Germany) were used. For circular dichroism, isothermal titration calorimetry, tryptophan fluorescence, and dynamic light scattering experiments, liposomes were reconstructed and resuspendedwith phosphate-buffered saline (PBS; Welgene Inc, Gyeongsangbuk-do, Korea). For calcein-permeation tests, liposomes were reconstructed with calcein solutions (80 mM, 40 mM, 30 mM, 20 mM, and 10 mM) (Sigma, Darmstadt, Germany), purified with Sephadex-G50 columns (Pharmacia biotech, Stockholm, Sweden), and resuspended with PBS. Maximum-soluble -concentration measurements. […] turbidity with PBS. The lowest concentration of peptide without visible turbidity was determined to be the maximu m soluble concentration. Each experiment was performed at least twice. Circular dichroism (CD) spectrum. DMPC/PG -liposome, PC/cholesterol -liposome, and peptide stock solutions were diluted in PBS. For circular dichroism, PBS with neither liposome nor peptides was also prepared. Liposomes and peptides were mixed to […] Samples were transferred into type J/1 cuvettes (Jasco, Tokyo, Japan). Cuvettes were placed into the J -815 circular -dichroism spectrometer (Jasco, Tokyo, Japan). Measurement parameters were as follows: wavelength, 190 -260 nm; data pitch, 0.2 nm; bandwidth, 1.00 nm; […] Each experiment was performed in triplicate. Data below 197 nm was not analyzed because o f experimental difficulties in obtaining those spectra. Each experiment was performed at least twice. Artificial membrane calcein permeation measurements. Calcein fluorescence was used to measure peptide -induced liposome permeation. Calcein solutions (10 mM, 20 mM, or 60 mM) containing PC/PG liposomes and peptides were diluted in PBS ( ×1, ×2, ×3, ×8). […] Liposome solutions (180 μl) were transferred to wells of black, clear -bottomed 96 -well plates (Costar, New York, USA). Peptide […] Liposome-containing plates and peptide -containing plates were inserted into a Flexstation 3 Multi -Mode Microplate Reader (Molecular Devices, California, USA). Peptide solutions (20 μl) were transferred and mixed with liposome solution automatical ly after 30 sec. […] Measurement parameters were as follows: excitation, 490 nm; emission, 520 nm; temperature, 37 °C. […] was transferred and mixed with the liposome -peptide solu tions automatically after 300 sec to acquire fluorescence at maximum leakage. […] Fluorescence measured between 0 -300 sec after addition of 0 μg/ml peptide was considered the baseline. Each experiment was performed at least twice. Dynamic light scattering (DLS) measurements. Dynamic light scattering was used to measure peptide -induced liposome volume changes. PC/PG -liposome stock solutions and peptides were resuspended in PBS. Liposomes and peptides were mixed to […]
# [2] = CAMHB plus 0.2% bovine serum albumin and 0.01% acetic acid, values marked * in Table 2
molecule,measurement,setting,value
CC1COc2c(N3CCN(C)CC3)c(F)cc3c(=O)c(C(=O)O)cn1c23 (centres unmarked) [Ofloxacin],MIC,A. baumannii KCCM 40203,1.25 µM
same,MIC,S. aureus KCTC 1621,1.25 µM
CN(C)[C@@H]1C(O)=C(C(N)=O)C(=O)[C@@]2(O)C(O)=C3C(=O)c4c(O)cccc4[C@@](C)(O)[C@H]3C[C@@H]12 [Tetracycline],MIC,A. baumannii KCCM 40203,1.25 µM
same,MIC,S. aureus KCTC 1621,1.25 µM
"CN[C@H](CC(C)C)C(=O)N[C@H]1C(=O)N[C@@H](CC(N)=O)C(=O)N[C@H]2C(=O)N[C@H]3C(=O)N[C@H](C(=O)N[C@H](C(=O)O)c4cc(O)cc(O)c4-c4cc3ccc4O)[C@H](O)c3ccc(c(Cl)c3)Oc3cc2cc(c3O[C@@H]2O[C@H](CO)[C@@H](O)[C@H](O)[C@H]2O[C@H]2C[C@](C)(N)[C@H](O)[C@H](C)O2)Oc2ccc(cc2Cl)[C@H]1O [Vancomycin, reference compound]",MIC,"MDR A. baumannii; Acinetobacter baumannii, ATCCBAA1605, 18 h, read-out: Minimum inhibitory concentrations, MDR A. baumannii",> 5 µM
same,MIC,"MDR E. faecalis; Enterococcus faecalis, ATCC51575, 18 h, read-out: Minimum inhibitory concentrations, MDR E. faecalis",> 20 µM
same,MIC,"MDR P. aeruginosa; Pseudomonas aeruginosa, CCARM2180, 18 h, read-out: Minimum inhibitory concentrations, MDR P. aeruginosa",> 5 µM
same,MIC,"MDR S. aureus; Staphylococcus aureus, KCCM40510, 18 h, read-out: Minimum inhibitory concentrations, MDR S. aureus",1.25 µM
same,MIC,K. pneumonia strains,> 5 µM
same,MIC,E. aerogenes NCCP 16285,> 5 µM
same,MIC,A. baumannii KCCM 40203,1.25 µM
same,MIC,S. aureus KCTC 1621,1.25 µM
KFKWWRMLI (not fully specified (C-terminus)),"MIC (Strain 1), P. aeruginosa H103",P. aeruginosa,2.6 µM
same,"MIC (Strain 2), S. aureus ATCC 25923",S. aureus,1.2 µM
KRRWRIWLV (not fully specified (C-terminus)),"MIC (Strain 1), P. aeruginosa H103",P. aeruginosa,3.0 µM
same,"MIC (Strain 2), S. aureus ATCC 25923",S. aureus,1.5 µM
RLWWKIWLK (not fully specified (C-terminus)),"MIC (Strain 1), P. aeruginosa H103",P. aeruginosa,22.5 µM
same,"MIC (Strain 2), S. aureus ATCC 25923",S. aureus,1.4 µM
WKWLKKWIK (not fully specified (C-terminus)),"MIC (Strain 1), P. aeruginosa H103",P. aeruginosa,2.9 µM
same,"MIC (Strain 2), S. aureus ATCC 25923",S. aureus,0.7 µM
WRLWRWIVR-NH2 [HLWCopW29-3],"MIC in 0.2% albumin and 0.01% AcOH added CLSI standard condition, MDR A. baumannii",MDR A. baumannii; [2],20 µM
same,"MIC in 0.2% albumin and 0.01% AcOH added CLSI standard condition, MDR E. faecalis",MDR E. faecalis; [2],20 µM
same,"MIC in 0.2% albumin and 0.01% AcOH added CLSI standard condition, MDR P. aeruginosa",MDR P. aeruginosa; [2],> 20 µM
same,"Minimum inhibitory concentrations, MDR P. aeruginosa","MDR P. aeruginosa; CLSI broth microdilution, CAMHB with 50 mg/L Ca2+, 10 mg/L Mg2+, 5 × 10^5 CFU/ml, 18 h 37 °C, no visible turbidity, triplicate, strain CCARM 2180",> 20 µM
same,"MIC in 0.2% albumin and 0.01% AcOH added CLSI standard condition, MDR S. aureus",MDR S. aureus; [2],20 µM
same,"Hemolysis percent, 25 μM",human red blood cells; 25,1.10 ±0.14%
same,"Hemolysis percent, 50 μM",human red blood cells; 50,1.37 ±0.02%
same,"Hemolysis percent, 100 μM",human red blood cells; 100,4.45 ±0.23%
same,Maximum soluble concentration in PBS,[1],> 200 µM
